The supplement of paper PMC7840683
± gives the standard deviation of the averaged measurements.

Test system: HepaRG
Assay: LDH release cytotoxicity, % of total lysis control; higher = more cytotoxic
Details: 48 h
In short: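 Single-lot HepaRG cells on collagen I-coated 96-well plates were exposed for 48 h in duplicate, in serum-free induction medium with 0.5% DMSO, to eight-point half-log series (test chemicals top 100 µM). Total lysis wells received 0.1% Triton X, and LDH leakage into 50 µL spent medium was read as resorufin fluorescence (CytoTox-ONE, Tecan Safire). Percent cytotoxicity was normalized to on-plate vehicle and total lysis controls and averaged over the duplicates.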

OC12N=C(c3ccccc3)SC1Cc1cc(Cl)ccc12 (centres undefined) [HMR1426]
LDH release cytotoxicity (0.03162 µM): 0.113 ± 0.048%
LDH release cytotoxicity (0.1 µM): -0.325 ± 2%
LDH release cytotoxicity (0.3162278 µM): 2.01 ± 0.36%
LDH release cytotoxicity (1 µM): 1.42 ± 1.4%
LDH release cytotoxicity (3.16228 µM): 3.44 ± 0.72%
LDH release cytotoxicity (10 µM): 4.43 ± 0.51%
LDH release cytotoxicity (31.6228 µM): 3.89 ± 0.3%
LDH release cytotoxicity (100 µM): 8.06 ± 0.31%

COc1cccc(C(=O)NN(C(=O)c2cc(C)cc(C)c2)C(C)(C)C)c1C [Methoxyfenozide]
LDH release cytotoxicity (0.03162 µM): -1.25 ± 0.79%
LDH release cytotoxicity (0.1 µM): -1.31 ± 0.37%
LDH release cytotoxicity (0.3162278 µM): -0.377 ± 0.4%
LDH release cytotoxicity (1 µM): -1.71 ± 0.41%
LDH release cytotoxicity (3.16228 µM): -1.43 ± 0.52%
LDH release cytotoxicity (10 µM): -0.152 ± 0.72%
LDH release cytotoxicity (31.6228 µM): 0.244 ± 0.32%
LDH release cytotoxicity (100 µM): 3.13 ± 0.26%

CCOC(=O)C(C)Oc1ccc(Oc2cnc3cc(Cl)ccc3n2)cc1 (centres undefined) [Quizalofop-ethyl]
LDH release cytotoxicity (0.0272 µM): -0.606 ± 1.1%
LDH release cytotoxicity (0.086 µM): -0.619 ± 0.15%
LDH release cytotoxicity (0.271956 µM): -0.991 ± 0.67%
LDH release cytotoxicity (0.86 µM): -1.42 ± 0.21%
LDH release cytotoxicity (2.71956 µM): -0.919 ± 0.39%
LDH release cytotoxicity (8.6 µM): -0.541 ± 0.075%
LDH release cytotoxicity (27.1956 µM): -0.469 ± 0.41%
LDH release cytotoxicity (86 µM): -0.0561 ± 0.018%

CC(C=CC1=C(C)CCCC1(C)C)=CC=CC(C)=CCO [Retinol]
LDH release cytotoxicity (0.03305 µM): -0.586 ± 0.2%
LDH release cytotoxicity (0.1045 µM): -1.81 ± 0.0097%
LDH release cytotoxicity (0.330458 µM): -1.85 ± 0.047%
LDH release cytotoxicity (1.045 µM): -1.97 ± 0.1%
LDH release cytotoxicity (3.30458 µM): -2.34 ± 0.81%
LDH release cytotoxicity (10.45 µM): -1.67 ± 0.32%
LDH release cytotoxicity (33.0458 µM): -1.8 ± 0.11%
LDH release cytotoxicity (104.5 µM): -1.69 ± 0.67%

CCOc1cccc(-n2cc(C(=O)N3CCN(c4cc(C(=O)O)c5ccccc5c4)CC3)nc2-c2ccc(C)cc2)c1
LDH release cytotoxicity (0.03162 µM): 1.24 ± 1.9%
LDH release cytotoxicity (0.1 µM): -0.332 ± 0.54%
LDH release cytotoxicity (0.3162278 µM): 0.167 ± 0.63%
LDH release cytotoxicity (1 µM): -0.486 ± 0.56%
LDH release cytotoxicity (3.16228 µM): -0.46 ± 0.52%
LDH release cytotoxicity (10 µM): -0.211 ± 1%
LDH release cytotoxicity (31.6228 µM): 9.35 ± 0.66%
LDH release cytotoxicity (100 µM): 44.3 ± 2.7%

O=C1OC(c2ccc(O)cc2)(c2ccc(O)cc2)c2ccccc21 [Phenolphthalein]
LDH release cytotoxicity (0.03162 µM): -0.731 ± 0.29%
LDH release cytotoxicity (0.1 µM): -1.59 ± 0.42%
LDH release cytotoxicity (0.3162278 µM): -0.412 ± 1%
LDH release cytotoxicity (1 µM): -1.68 ± 1%
LDH release cytotoxicity (3.16228 µM): -0.391 ± 0.89%
LDH release cytotoxicity (10 µM): 0.41 ± 0.52%
LDH release cytotoxicity (31.6228 µM): 0.57 ± 0.34%
LDH release cytotoxicity (100 µM): 10.5 ± 2%

CC(=O)OC1CC(C)OC(C)O1 (centres undefined) [Dimethoxane]
LDH release cytotoxicity (0.03162 µM): -0.261 ± 1.2%
LDH release cytotoxicity (0.1 µM): -0.746 ± 0.9%
LDH release cytotoxicity (0.3162278 µM): -1.64 ± 0.38%
LDH release cytotoxicity (1 µM): -1.54 ± 0.41%
LDH release cytotoxicity (3.16228 µM): -1.77 ± 0.27%
LDH release cytotoxicity (10 µM): -1.72 ± 0.61%
LDH release cytotoxicity (31.6228 µM): -1.51 ± 0.86%
LDH release cytotoxicity (100 µM): 4.58 ± 1.8%

COC(=O)c1c(Cl)c(Cl)c(C(=O)OC)c(Cl)c1Cl [Chlorthal-dimethyl]
LDH release cytotoxicity (0.03162 µM): -0.87 ± 0.31%
LDH release cytotoxicity (0.1 µM): -0.884 ± 1.1%
LDH release cytotoxicity (0.3162278 µM): -1.01 ± 0.16%
LDH release cytotoxicity (1 µM): -0.618 ± 0.39%
LDH release cytotoxicity (3.16228 µM): -0.53 ± 0.67%
LDH release cytotoxicity (10 µM): 0.0929 ± 0.87%
LDH release cytotoxicity (31.6228 µM): -0.208 ± 0.25%
LDH release cytotoxicity (100 µM): 1.01 ± 0.28%

COc1c(Cl)ccc(Cl)c1C(=O)O [Dicamba]
LDH release cytotoxicity (0.03162 µM): -2.43 ± 1.4%
LDH release cytotoxicity (0.1 µM): -1.52 ± 0.043%
LDH release cytotoxicity (0.3162278 µM): -0.804 ± 0.36%
LDH release cytotoxicity (1 µM): -2.09 ± 0.64%
LDH release cytotoxicity (3.16228 µM): -0.996 ± 0.75%
LDH release cytotoxicity (10 µM): -0.906 ± 0.014%
LDH release cytotoxicity (31.6228 µM): -0.688 ± 0.24%
LDH release cytotoxicity (100 µM): 0.691 ± 0.52%

CN1CCN(Cc2cc(-c3ccc4nc(O)oc4c3)co2)C(c2ccc(F)cc2)C1 (centres undefined) [AVE8488]
LDH release cytotoxicity (0.03162 µM): -0.724 ± 0.27%
LDH release cytotoxicity (0.1 µM): -1.47 ± 0.17%
LDH release cytotoxicity (0.3162278 µM): -0.841 ± 0.31%
LDH release cytotoxicity (1 µM): -0.702 ± 0.13%
LDH release cytotoxicity (3.16228 µM): -1.52 ± 0.25%
LDH release cytotoxicity (10 µM): -0.46 ± 0.076%
LDH release cytotoxicity (31.6228 µM): 0.998 ± 0.15%
LDH release cytotoxicity (100 µM): 9.54 ± 0.2%

CC12C=CC(=O)C=C1CCC1C2C(=O)CC2(C)C1CCC2(O)C(=O)CO (centres undefined) [Prednisone]
LDH release cytotoxicity (0.03162 µM): -1.86 ± 0.28%
LDH release cytotoxicity (0.1 µM): -1.83 ± 0.41%
LDH release cytotoxicity (0.3162278 µM): -2.31 ± 0.061%
LDH release cytotoxicity (1 µM): -1.54 ± 0.39%
LDH release cytotoxicity (3.16228 µM): -1.77 ± 0.042%
LDH release cytotoxicity (10 µM): -1.84 ± 0.37%
LDH release cytotoxicity (31.6228 µM): -1.61 ± 0.33%
LDH release cytotoxicity (100 µM): -0.167 ± 0.094%

CCCSP(=O)(OCC)Oc1ccc(Br)cc1Cl (centres undefined) [Profenofos]
LDH release cytotoxicity (0.01581 µM): -6.81 ± 0.41%
LDH release cytotoxicity (0.05 µM): -6.73 ± 0.81%
LDH release cytotoxicity (0.1581139 µM): -6.46 ± 0.68%
LDH release cytotoxicity (0.5 µM): -6.51 ± 0.86%
LDH release cytotoxicity (1.5811388 µM): -6.7 ± 1.5%
LDH release cytotoxicity (5 µM): -7.47 ± 0.58%
LDH release cytotoxicity (15.8114 µM): -7.49 ± 1.1%
LDH release cytotoxicity (50 µM): -6.78 ± 0.14%

CC(C)CC(C)O (centres undefined) [4-Methyl-2-pentanol]
LDH release cytotoxicity (0.03162 µM): -0.36 ± 0.0099%
LDH release cytotoxicity (0.1 µM): -0.242 ± 0.16%
LDH release cytotoxicity (0.3162278 µM): -1.1 ± 0.37%
LDH release cytotoxicity (1 µM): -1.21 ± 0.61%
LDH release cytotoxicity (3.16228 µM): -1.33 ± 0.84%
LDH release cytotoxicity (10 µM): -1.04 ± 0.65%
LDH release cytotoxicity (31.6228 µM): 0.165 ± 0.21%
LDH release cytotoxicity (100 µM): 2.03 ± 1%

CCCCCOC(=O)COc1cc(N2C(=O)C3=C(CCCC3)C2=O)c(F)cc1Cl [Flumiclorac-pentyl]
LDH release cytotoxicity (0.03162 µM): -1.94 ± 0.45%
LDH release cytotoxicity (0.1 µM): -1.12 ± 1.1%
LDH release cytotoxicity (0.3162278 µM): -0.329 ± 0.33%
LDH release cytotoxicity (1 µM): -1.17 ± 0.56%
LDH release cytotoxicity (3.16228 µM): -0.793 ± 0.22%
LDH release cytotoxicity (10 µM): -0.278 ± 0.39%
LDH release cytotoxicity (31.6228 µM): -1.05 ± 0.035%
LDH release cytotoxicity (100 µM): 0.436 ± 0.073%

O=c1c(-c2ccc(O)cc2)coc2cc(O)ccc12 [7,4'-Dihydroxyisoflavone]
LDH release cytotoxicity (0.03162 µM): -1.77 ± 0.55%
LDH release cytotoxicity (0.1 µM): -1.95 ± 0.049%
LDH release cytotoxicity (0.3162278 µM): -1.45 ± 0.29%
LDH release cytotoxicity (1 µM): -2.21 ± 0.22%
LDH release cytotoxicity (3.16228 µM): -1.87 ± 0.47%
LDH release cytotoxicity (10 µM): -0.343 ± 0.097%
LDH release cytotoxicity (31.6228 µM): -0.854 ± 0.4%
LDH release cytotoxicity (100 µM): 0.307 ± 0.89%

Cc1nccn1-c1ccc(Sc2cccc(C3(C(N)=O)CCOCC3)c2)cc1
LDH release cytotoxicity (0.03162 µM): -2.79 ± 0.052%
LDH release cytotoxicity (0.1 µM): -3.28 ± 1.4%
LDH release cytotoxicity (0.3162278 µM): -2.87 ± 1%
LDH release cytotoxicity (1 µM): -3.4 ± 0.34%
LDH release cytotoxicity (3.16228 µM): -2.44 ± 0.034%
LDH release cytotoxicity (10 µM): 7.65 ± 1.9%
LDH release cytotoxicity (31.6228 µM): 31.9 ± 0.88%
LDH release cytotoxicity (100 µM): 42.52 ± 0.32%

COC(=O)CCCCC(=O)OC [Dimethyl adipate]
LDH release cytotoxicity (0.03162 µM): 0.892 ± 0.4%
LDH release cytotoxicity (0.1 µM): -1.11 ± 0.066%
LDH release cytotoxicity (0.3162278 µM): -1.36 ± 0.49%
LDH release cytotoxicity (1 µM): -1.52 ± 0.75%
LDH release cytotoxicity (3.16228 µM): -1.398 ± 0.013%
LDH release cytotoxicity (10 µM): -1.08 ± 0.68%
LDH release cytotoxicity (31.6228 µM): -0.702 ± 0.6%
LDH release cytotoxicity (100 µM): 0.485 ± 0.56%

CC(C)=CCCC(C)=CC=O [3,7-Dimethyl-2,6-octadienal]
LDH release cytotoxicity (0.03162 µM): -1.99 ± 0.53%
LDH release cytotoxicity (0.1 µM): -2.58 ± 0.96%
LDH release cytotoxicity (0.3162278 µM): -1.66 ± 0.9%
LDH release cytotoxicity (1 µM): -2.25 ± 1.7%
LDH release cytotoxicity (3.16228 µM): -0.875 ± 0.71%
LDH release cytotoxicity (10 µM): -0.825 ± 1.8%
LDH release cytotoxicity (31.6228 µM): -0.501 ± 0.3%
LDH release cytotoxicity (100 µM): 0.215 ± 0.38%
